# Laboratory results from US20160051570A1, “TREATMENT OF RHEUMATOID ARTHRITIS” (Ganderland and Associates, Inc., priority 2014, published 2016).
# Test system: RA
# Assay: Previous drug treatment of the same RA patients (patient history)
# Assay type: in vivo, human
# Conditions: drug taken before the composition
row,Compound,effect in remission of the disease
1,"Cc1oncc1C(=O)Nc1ccc(C(F)(F)F)cc1 [arava, leflunomide]",without any real effect
2,CN(Cc1cnc2nc(N)nc(N)c2n1)c1ccc(C(=O)N[C@@H](CCC(=O)O)C(=O)O)cc1 [methotrexate],without any real effect
3,C[C@]12C=CC(=O)C=C1CC[C@@H]1[C@@H]2C(=O)C[C@@]2(C)[C@H]1CC[C@]2(O)C(=O)CO [prednisone],without any real effect
4,ENBREL®,without any real effect
